According to BindingDB's records for doi:10.1021/jm801327q (Cnrs, 2009):

How the values were obtained:
[1] = molecular target: Amyloid-beta precursor protein (Homo sapiens) (UniProt P05067); experiment: EC/IC50 was the effective concentration of agonist inhibiting the formation of A-beta fibrils to 50% of the control value. Three independent measurements were made for all cases.
[2] = molecular target: 5-hydroxytryptamine receptor 4 (Homo sapiens, UniProt Q13639); experiment: Radioligand Binding Assay (Ki) and cAMP Accumulation Assay (EC50); conditions: pH 7.4; 25 °C
Protocol: Nonspecific binding was determined with 10 uM GR113808. After incubation, the reaction was terminated by filtration through Whatman GF/B. Radioactivity was measured using a Beckman model LS6500C liquid scintillation counter. Binding data are expressed as a percentage of displacement for the screening of the library compounds. For selected compounds, Ki were analyzed by computer-assisted nonlinear regression analysis (Prism, Graphpad Software, San Diego, CA). EC50 values correspond to the concentration of agonists required to obtain half maximal stimulation of adenylyl cyclase. […] The data are the results of two or three independent determinations performed in triplicate.

Chain of 5-hydroxytryptamine receptor 4 (Q13639 whole entry): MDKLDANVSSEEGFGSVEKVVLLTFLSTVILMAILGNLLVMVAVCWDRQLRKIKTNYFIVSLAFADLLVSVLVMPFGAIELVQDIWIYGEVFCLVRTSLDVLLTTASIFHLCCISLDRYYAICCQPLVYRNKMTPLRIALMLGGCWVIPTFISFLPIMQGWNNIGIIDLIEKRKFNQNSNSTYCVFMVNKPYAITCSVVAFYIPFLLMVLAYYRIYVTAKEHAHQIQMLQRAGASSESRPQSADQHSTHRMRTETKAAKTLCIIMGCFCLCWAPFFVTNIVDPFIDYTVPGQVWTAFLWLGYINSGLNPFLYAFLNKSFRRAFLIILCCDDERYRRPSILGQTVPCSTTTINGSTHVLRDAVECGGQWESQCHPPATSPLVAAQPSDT
Chain of Amyloid-beta precursor protein (Homo sapiens) (P05067 whole entry, looked up): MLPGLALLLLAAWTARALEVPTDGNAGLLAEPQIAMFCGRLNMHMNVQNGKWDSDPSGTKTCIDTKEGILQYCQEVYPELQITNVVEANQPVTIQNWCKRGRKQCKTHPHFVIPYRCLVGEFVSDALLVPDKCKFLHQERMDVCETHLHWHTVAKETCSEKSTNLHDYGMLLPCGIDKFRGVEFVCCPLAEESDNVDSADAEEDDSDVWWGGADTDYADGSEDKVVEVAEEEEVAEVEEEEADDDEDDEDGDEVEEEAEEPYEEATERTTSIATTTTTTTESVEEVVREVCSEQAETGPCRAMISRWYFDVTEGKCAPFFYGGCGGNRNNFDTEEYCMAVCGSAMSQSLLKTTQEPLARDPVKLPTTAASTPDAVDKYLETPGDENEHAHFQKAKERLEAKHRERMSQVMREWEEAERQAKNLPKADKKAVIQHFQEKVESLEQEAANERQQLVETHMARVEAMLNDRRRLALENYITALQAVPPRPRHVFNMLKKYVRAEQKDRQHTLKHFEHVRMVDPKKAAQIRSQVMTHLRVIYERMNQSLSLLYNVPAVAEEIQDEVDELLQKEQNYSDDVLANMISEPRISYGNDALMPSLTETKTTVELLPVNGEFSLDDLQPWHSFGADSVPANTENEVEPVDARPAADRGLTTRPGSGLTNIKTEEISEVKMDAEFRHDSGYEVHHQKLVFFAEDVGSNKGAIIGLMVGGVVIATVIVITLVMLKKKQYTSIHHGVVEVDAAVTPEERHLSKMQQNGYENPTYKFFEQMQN

| EC50 [1] | EC50 [2] | Ki [2] | SMILES |
| --- | --- | --- | --- |
| 9000 nM | – | – | COc1cc(N)c(Cl)cc1C(=O)OCCN1CCC(NC(=O)CCCNCCCc2ccc(CCCNCCCC(=O)NC3CCN(CCOC(=O)c4cc(Cl)c(N)cc4OC)CC3)cc2)CC1 [ML10302 scaffold, 14] |
| – | 4 nM | 111 nM | COc1cc(N)c(Cl)cc1C(=O)OCCN1CCC(NC(=O)CCCCCN2C(=O)c3cccc4c(N)ccc(c34)C2=O)CC1 [ML10302 scaffold, 9{a;y}] |
